Reference: patent US20230002446A1, “ANTI-INFLAMMATORY AGENTS” (The University of Sydney, priority 2019, published 2023)
Where a SMILES comes first, the peptide text is derived from it. [ ]: non-standard residue; d: D form. AEEA = NCCOCCOCC(=O)O

System: C57BL/6 mice
Assay: contact hypersensitivity model (DNFB-induced contact dermatitis)
Format: in vivo
Protocol: FIG. 2—Peptide administration reduces inflammation in a mouse model of contact dermatitis and reduces myeloid inflammatory infiltrate. (A) Experimental outline of DNFB-induced contact dermatitis. (B) Ear thickness of peptide RP23 (SEQ ID NO:12) treated mice, repeated 3 times. […] Data are presented as mean±S.E.M. Statistical significance was determined (B) by multiple t tests (C) by ANOVA with Dunnett's multiple comparison test, *p<0.05, **p<0.01, ***p<0.001.
FIG. 3—The peptide effect is dependent on the peptide sequence and dose. (A) PBS, scrambled peptide or peptide MUC1SP ([…]; SEQ ID NO: 3) was injected subcutaneously seven days prior to sensitising C57BL/6 mice (n=5) with DNFB on the abdomen. […] (B) A comparison of the immunosuppressive effect of peptide RP23 (SEQ ID NO:12) and MUC1SP (SEQ ID NO: 3). (C) SEQ ID NO:12 suppressed immunity in a dose dependent manner. (D) Addition of GM-CSF to the SEQ ID NO:12 injection abrogated the immune suppression. Data are the means±S.E.M.
FIG. 8—Effects of peptide variants on the inflammatory response. Mice received one injection of PBS or one of the following peptides (10 nmol) subcutaneously at the abdomen (A) peptide RP23 (SEQ ID NO: 12), peptide AF594-RP23 (SEQ ID NO: 21), peptide K4-G3-MUC1SP (SEQ ID NO:22) or MUC1SP C fragment (SEQ ID NO: 2). Five days later, mice were challenged with DNFB at a distal site, on the ears. The thickness of the ears was measured over 72 hours.
FIG. 9—Effects of further peptide variants, without N-terminal methionine, on the inflammatory response in a model of contact dermatitis. Mice received one injection of PBS, RP23 (SEQ ID NO:12) (10 nmol) or one of the peptide variants indicated in the table including SEQ ID NO: 32 and 35 as described herein (equivalent molar amount of RP23), subcutaneously at the abdomen. Photoleucine replaces leucine where indicated, these molecules used for photo-crosslinking studies. Seven days later, abdominal skin was sensitised with a contact irritant (DNFB) and five days later, mice were challenged with DNFB at a distal site, on the ears. (A) Specific increase in ear thickness over 72 hours, data are the means+/−SEM (n=6). Statistical significance was determined by ANOVA with Dunnett's multiple comparison test to PBS only control, **p<0.01. (B) Specific increase in ear thickness at 24 hours post-challenge. Data are the means+/−SEM (n=6). Statistical significance was determined by t-test to relevant control, as indicated, *p<0.05, **p<0.01, ns=not significant.
The abdomens of 8-week old female C57BL/6 mice (Australian BioResources) were coarse shaved. A minimum of 24 hours later, RP23 (SEQ ID NO:12) was delivered via sub-cutaneous injection at the abdomen in 50 μl phosphate buffered saline. Seven days later, mice were topically sensitised to 1-fluoro-2,4-dinitrobenzene (DNFB, 0.5 vol %) in olive oil/acetone (1:4, v/v, 30 μl) via application to the shaved abdomen. Five days after sensitisation, mice were challenged on the ears with topical DNFB (0.25 vol %) in olive oil/acetone (1:4, v/v, 15 μl per ear). Ear thickness was measured daily using manual callipers from immediately before challenge, up to 96 hours post challenge. Positive controls for ear swelling consisted of mice that were injected with PBS instead of RP23. Negative or irritant controls consisted of a group of mice that received the DNFB challenge, but not the sensitisation. The average of the change in ear thickness from this control group was subtracted from the change in ear thickness of other samples to account for non-specific irritation due to the application of DNFB, olive oil and acetone.
The inventors then conducted additional in vivo studies, using a model of contact hypersensitivity, to determine the portion of RP23 responsible for its immunomodulatory activity. Mice received one injection of peptide (10 nmol) subcutaneously at the abdomen, seven days prior to sensitisation of the skin with a contact irritant (DNFB). […]

CSCC[C@H](NC(=O)COCCOCCNC(=O)[C@H](CCCCN)NC(=O)[C@H](CCCCN)NC(=O)[C@H](CCCCN)NC(=O)[C@@H](N)CCCCN)C(=O)N[C@H](C(=O)N1CCC[C@H]1C(=O)NCC(=O)N[C@H](C(=O)N[C@@H](CCC(N)=O)C(=O)N[C@@H](CO)C(=O)N1CCC[C@H]1C(=O)N[C@@H](Cc1ccccc1)C(=O)N[C@@H](Cc1ccccc1)C(=O)N[C@@H](CC(C)C)C(=O)N[C@@H](CC(C)C)C(=O)N[C@@H](CC(C)C)C(=O)N[C@@H](CC(C)C)C(=O)N[C@@H](CC(C)C)C(=O)N[C@H](C(=O)N[C@H](C(=O)N[C@@H](CC(C)C)C(=O)N[C@H](C(=O)N[C@H](C(=O)N[C@H](C(=O)O)C(C)C)C(C)C)[C@@H](C)O)C(C)C)[C@@H](C)O)[C@@H](C)O)[C@@H](C)O [RP23] (H-KKKK[AEEA]MTPGTQSPFFLLLLLTVLTVV-OH)
inflammatory response (ear thickness over 72 hours) (10 nmol subcutaneously at the abdomen, compared to PBS (FIG. 8)): led to a reduced inflammatory response
immune suppression compared to SEQ ID NO: 3 (MUC1SP) (FIG. 3b): without significantly altering immune suppression
suppression of ear swelling with GM-CSF included (GM-CSF added to the injection (FIG. 3d)): abrogated much of the suppression
reduction in ear swelling compared to controls (dose-response, 2, 5 or 10 nmol): up to 100%
elicitation of inflammation (ear thickness) (single nanomolar injection prior to sensitisation): significantly suppress elicitation of inflammation
inflammatory myeloid cell skin infiltrate (single nanomolar injection prior to sensitisation, flow cytometry 72 hours post challenge): reduction
